Experimental data from patent US4971995A, “Alkyl or benzyl phenol ethers, their preparation and their therapeutic uses” (Delande S.A., priority 1988, dated 1990).
Like-named read-outs stand apart in the source and are kept apart here.

What was measured:
[1] = target: T1, form A of monoamine oxydase (Rattus norvegicus, UniProt P21396); experiment: in vitro inhibition of monoamine oxydase form A (homogenized rat brain, (14C) serotonine substrate); type: biochemical, rat (male Sprague-Dawley, entire brain); settings: rat brain homogenate
T1 construct: monoamine oxydase in rat brain tissue; from tissue; host or cells: homogenized entire brain of male Sprague-Dawley rat
T1 sequence (P21396 1-526): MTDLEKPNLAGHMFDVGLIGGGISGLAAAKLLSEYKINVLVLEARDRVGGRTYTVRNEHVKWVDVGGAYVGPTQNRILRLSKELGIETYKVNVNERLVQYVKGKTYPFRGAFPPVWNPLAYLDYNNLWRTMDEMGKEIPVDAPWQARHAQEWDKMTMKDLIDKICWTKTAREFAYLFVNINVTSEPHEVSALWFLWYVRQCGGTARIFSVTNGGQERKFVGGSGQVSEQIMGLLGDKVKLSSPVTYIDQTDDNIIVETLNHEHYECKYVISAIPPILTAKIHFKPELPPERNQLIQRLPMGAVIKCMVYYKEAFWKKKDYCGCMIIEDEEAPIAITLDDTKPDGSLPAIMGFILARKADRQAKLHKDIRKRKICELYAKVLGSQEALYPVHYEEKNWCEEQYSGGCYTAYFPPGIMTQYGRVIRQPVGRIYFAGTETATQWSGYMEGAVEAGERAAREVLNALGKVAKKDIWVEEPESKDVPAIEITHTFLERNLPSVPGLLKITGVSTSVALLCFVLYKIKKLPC
Protocol: Pharmacol., 1983, 35, 161-165.
(§1) Inhibition constants KIA and KIB on forms A and B of mono-
(§2) amine oxydase (homogenized entire brain of a male rate
(§3) (Sprague-Dawley): 1 g of tissue to 16 ml of phosphate
(§4) The inhibition constants were calculated from the formula: KI =
CI50 /l + [S]/Km taking [S] = 48 μM for (^14 C)
serotonine and Km = 100 μM, or [S] = 12 μM for (^14 C)
phenylethylamine and Km = 6 μM
(§5) as the selective substrates for forms A and B respectively of monoamine oxydase.

[2] = target: T2, form B of monoamine oxydase (Rattus norvegicus, UniProt P19643); experiment: in vitro inhibition of monoamine oxydase form B (homogenized rat brain, (14C) phenylethylamine substrate); type: biochemical, rat (male Sprague-Dawley, entire brain); settings: for Ki: rat brain homogenate, pH 7.4, (14C) phenylethylamine; for KIA /KIB, after 20 min pre-incubation / KIA /KIB, no pre-incubation: selectivity ratio form A / form B
T2 construct: monoamine oxydase in rat brain tissue; from tissue; host or cells: homogenized entire brain of male Sprague-Dawley rat
T2 sequence (P19643 1-520): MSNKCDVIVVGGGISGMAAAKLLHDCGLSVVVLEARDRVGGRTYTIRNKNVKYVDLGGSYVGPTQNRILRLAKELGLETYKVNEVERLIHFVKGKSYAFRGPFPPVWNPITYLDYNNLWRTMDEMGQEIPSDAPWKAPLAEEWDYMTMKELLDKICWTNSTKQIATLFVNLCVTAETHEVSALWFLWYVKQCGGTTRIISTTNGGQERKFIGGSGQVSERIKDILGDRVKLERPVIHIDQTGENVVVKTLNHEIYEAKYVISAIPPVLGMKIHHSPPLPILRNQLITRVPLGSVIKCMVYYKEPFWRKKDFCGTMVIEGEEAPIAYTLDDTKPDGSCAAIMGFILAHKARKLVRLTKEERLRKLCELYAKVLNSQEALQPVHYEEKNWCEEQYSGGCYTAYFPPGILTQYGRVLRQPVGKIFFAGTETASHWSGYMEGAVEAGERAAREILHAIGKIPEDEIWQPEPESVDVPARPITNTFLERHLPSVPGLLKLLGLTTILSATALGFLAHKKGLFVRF
Protocol: as §1, §2, §3, §4, §5

[3] = after 20 min pre-incubation, pH 7.4, read-out: Inhibition constant KIA, after 20 min pre-incubation
[4] = no pre-incubation, pH 7.4, read-out: Inhibition constant KIA, no pre-incubation
[5] = after 20 min pre-incubation, read-out: Inhibition constant KIB, after 20 min pre-incubation
[6] = no pre-incubation, read-out: Inhibition constant KIB, no pre-incubation

| Compound | Ki [1, 3] [nM] | Ki [1, 4] [nM] | Ki [2, 5] [nM] | Ki [2, 6] [nM] | KIA /KIB, after 20 min pre-incubation ([2]; after 20 min pre-incubation) | KIA /KIB, no pre-incubation ([2]; no pre-incubation) |
| --- | --- | --- | --- | --- | --- | --- |
| COCC(COc1ccc(OCc2cccc(Cl)c2)cc1)OC (racemic) [compound 200210] | > 1720 | > 1720 | 570 | 403 | > 3 | > 4 |
| OCCCCc1ccc(OCc2cccc(Cl)c2)cc1 [compound 200123] |  | > 1720 |  | 232 |  | > 7 |

More lines, now with the values ahead:

| Ki [1, 3] [nM] | Ki [1, 4] [nM] | Ki [2, 5] [nM] | Ki [2, 6] [nM] | KIA /KIB, after 20 min pre-incubation ([2]; after 20 min pre-incubation) | KIA /KIB, no pre-incubation ([2]; no pre-incubation) | Compound |
| --- | --- | --- | --- | --- | --- | --- |
|  | > 5170 |  | 543 |  | > 9.5 | COC(CO)COc1ccc(OCc2cccc(Cl)c2)cc1 (racemic) [compound 200213, [(chloro-3 phenylmethyloxy)-4 phenoxy]-3 methoxy-2 propanol-1 (±)] |
| 5430 |  | 79 |  | 69 |  | COCCCC(O)c1ccc(OCc2cccc(Cl)c2)cc1 (racemic) [compound 280190, [(chloro-3 phenylmethyloxy)-4 phenyl]-1 methoxy-4 butanol-1 (±)] |
| 1650 |  |  |  |  |  | COC[C@H](O)COc1ccc(OCc2cccc(Cl)c2)cc1 [compound 280040, [(chloro-3 phenylmethyloxy)-4 phenoxy]-1 methoxy-3 propanol-2 S (+)] |
